Experimental data: patent US20220289753A1, “SHP2 INHIBITORS” (IRBM S.P.A., priority 2019, published 2022)
Like-named read-outs stand apart in the source and are kept apart here.

Columns and labels:
[1] = test system: ERK phosphorylation in KYSE-520 cells; assay: Phospho-ERK cellular assay (Advanced phospho-ERK1/2 (Thr202/Tyr204) TR-FRET kit); type: cell-based; conditions: read-out: pERK IC50
Method: Phospho-ERK Cellular Assay
ERK phosphorylation was detected using the “Advanced phospho-ERK1/2 (Thr202/Tyr204)” TR-FRET kit (Cisbio, Cat #64AERPEG/H), following the manufacturer reagents and instructions. […] After an overnight incubation, cells were treated with DMSO serial diluted compounds and incubated for 2 h at 37° C. After incubation, 2 μL/well of 4× Lysis Buffer (Cisbio 64KL1FDF), were added and incubated with cells for 30 min on gentle shaking. Finally, lysates were added with 2 μL/well of Eu cryptate (donor) and D2 (acceptor) conjugated antibodies (as provided by the Cisbio kit #64AERPEG/H) diluted 1:100 in Detection Buffer (as provided by the Cisbio kit #64AERPEG/H). Plates were then sealed and incubated at room temperature in the dark. After an overnight incubation, the TR-FRET signal was detected on a suitable reader (Envision, PerkinElmer). The lower the TR-FRET signal the higher the higher the SHP2 inhibition in cells. […] The percentage activity is fitted against the compound dilutions with a four-parameter logistic regression. The inflection point (i.e. the concentration at which half-maximal inhibition is achieved) is the IC50.

[2] = molecular target: T1, SHP-2 enzyme (Met1-Leu525) (Homo sapiens, UniProt Q06124); assay: SHP2 inhibition enzymatic assay (DiFMUP substrate, IRS1 peptide activation); type: biochemical; conditions: SHP2 wt; activated by 500 nM IRS1 peptide; 75 μM DiFMUP substrate
T1 construct: synthetized by Origene, Met1-Leu525, cat #TP750155; purchased Origene TP750155
T1 sequence (Q06124 1-525): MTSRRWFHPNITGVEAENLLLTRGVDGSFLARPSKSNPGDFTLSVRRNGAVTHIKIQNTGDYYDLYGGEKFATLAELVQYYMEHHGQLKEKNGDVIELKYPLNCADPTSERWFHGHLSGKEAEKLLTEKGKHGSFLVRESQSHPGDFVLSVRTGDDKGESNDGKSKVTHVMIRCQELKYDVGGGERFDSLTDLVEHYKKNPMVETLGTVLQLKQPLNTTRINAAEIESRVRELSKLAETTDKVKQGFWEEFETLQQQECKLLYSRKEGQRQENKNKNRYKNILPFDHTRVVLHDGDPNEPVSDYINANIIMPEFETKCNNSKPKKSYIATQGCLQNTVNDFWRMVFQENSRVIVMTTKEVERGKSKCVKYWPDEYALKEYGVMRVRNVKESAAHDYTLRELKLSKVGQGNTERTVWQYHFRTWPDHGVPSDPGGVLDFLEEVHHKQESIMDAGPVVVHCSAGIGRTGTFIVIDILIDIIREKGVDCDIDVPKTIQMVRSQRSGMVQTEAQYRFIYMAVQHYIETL
Method in brief: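 SHP-2 (Met1-Leu525, 0.5 nM final) preincubated 30 min with compounds and IRS1 activating peptide in HEPES pH 7.2 buffer with NaCl, KCl, EDTA, tween-20, 5 mM DTT. DiFMUP then added for 30 min at room temperature and fluorescence read. IC50 from four-parameter logistic fit of % inhibition.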

[3] = Homo sapiens, KYSE-520, 2 h, KYSE-520 cells, 2 h at 37° C., TR-FRET
[4] = KYSE-520 cells, 2 h at 37° C., TR-FRET

Row | IC50 [1, 3] [nM] | IC50 [1, 4] [nM] | IC50 [2] [nM] | SMILES | IC50 ([1]; Homo sapiens, KYSE-520, 2 h) [nM]
1 | 1000 to 5000 | < 1000 | < 500 | CNc1nccc(Sc2cnc3[nH]c(N4CCC5(CC4)Cc4ccccc4[C@H]5N[S@+]([O-])C(C)(C)C)nc3n2)c1Cl [Example 209, (R)-N-((S)-1′-(5-((3-chloro-2-(methylamino)pyridin-4-yl)thio)-1H-imidazo[4,5-b]pyrazin-2-yl)-1,3-dihydrospiro[indene-2,4′-piperidin]-1-yl)-2-methylpropane-2-sulfinamide] | –
2 | < 1000 | – | < 500 | Nc1nccc(Sc2cnc3[nH]c(N4CCC5(CC4)Cc4ccc(Br)cc4[C@H]5N)nc3n2)c1Cl [Example 219, (S)-1′-(5-((2-amino-3-chloropyridin-4-yl)thio)-1H-imidazo[4,5-b]pyrazin-2-yl)-6-bromo-1,3-dihydrospiro[indene-2,4′-piperidin]-1-amine] | –
3 | < 1000 | – | < 500 | Nc1cc(Sc2cnc3nc(N4CCC5(CC4)Cc4ccccc4[C@H]5N)[nH]c3n2)c(Cl)cn1 [Example 185, (S)-1′-(6-((2-amino-5-chloropyridin-4-yl)thio)-1H-imidazo[4,5-b]pyrazin-2-yl)-1,3-dihydrospiro[indene-2,4′-piperidin]-1-amine] | –
4 | 1000 to 5000 | – | < 500 | CN1C(=O)COc2c(Sc3cnc4nc(N5CCC6(CC5)Cc5ccccc5[C@H]6N)[nH]c4n3)cccc21 [Example 173, (S)-8-((2-(1-amino-1,3-dihydrospiro[indene-2,4′-piperidin]-1′-yl)-1H-imidazo[4,5-b]pyrazin-6-yl)thio)-4-methyl-2H-benzo[b][1,4]oxazin-3(4H)-one] | –
5 | – | – | – | CC1(C)C2CNCC1CN(c1nc3nc(Sc4cccnc4C(F)(F)F)cnc3[nH]1)C2 [Example 124, 2-(9,9-dimethyl-3,7-diazabicyclo[3.3.1]nonan-3-yl)-5-((2-(trifluoromethyl)pyridin-3-yl)thio)-1H-imidazo[4,5-b]pyrazine] | > 5000
6 | > 5000 | – | < 500 | CNC(=O)c1ncccc1Sc1cnc2[nH]c(N3CCC4(CC3)Cc3ccccc3[C@H]4N)nc2n1 [Example 224, (S)-3-((2-(1-amino-1,3-dihydrospiro[indene-2,4′-piperidin]-1′-yl)-1H-imidazo[4,5-b]pyrazin-5-yl)thio)-N-methylpicolinamide] | –
7 | 1000 to 5000 | – | < 500 | Nc1nccc(Sc2cnc3[nH]c(N4CCC5(CC4)Cc4ccccc4[C@H]5N)cc3n2)c1Cl [Example 265, (S)-1′-(2-((2-amino-3-chloropyridin-4-yl)thio)-5H-pyrrolo[2,3-b]pyrazin-6-yl)-1,3-dihydrospiro[indene-2,4′-piperidin]-1-amine] | –
8 | 1000 to 5000 | – | < 500 | CC1(N)CCN(c2nc3nc(Sc4cccc5nccnc45)cnc3[nH]2)CC1 [Example 71, 4-methyl-1-(5-(quinoxalin-5-ylthio)-1H-imidazo[4,5-b]pyrazin-2-yl)piperidin-4-amine] | –
9 | < 1000 | – | < 500 | N[C@@H]1c2ccccc2CC12CCN(c1nc3nc(Sc4ccnc5[nH]ccc45)cnc3[nH]1)CC2 [Example 232, (S)-1′-(5-((1H-pyrrolo[2,3-b]pyridin-4-yl)thio)-1H-imidazo[4,5-b]pyrazin-2-yl)-1,3-dihydrospiro[indene-2,4′-piperidin]-1-amine] | –
10 | > 5000 | – | < 500 | N#Cc1ccc2c(c1)[C@@H](N)C1(CCN(c3nc4nc(Sc5ccnc(N)c5Cl)cnc4[nH]3)CC1)C2 [Example 256, (S)-1-amino-1′-(5-((2-amino-3-chloropyridin-4-yl)thio)-1H-imidazo[4,5-b]pyrazin-2-yl)-1,3-dihydrospiro[indene-2,4′-piperidine]-6-carbonitrile] | –
11 | 1000 to 5000 | – | < 500 | N[C@@H]1c2cccnc2CC12CCN(c1nc3nc(Sc4ccncc4Cl)cnc3[nH]1)CC2 [Example 150, (S)-1′-(5-((3-chloropyridin-4-yl)thio)-1H-imidazo[4,5-b]pyrazin-2-yl)-5,7-dihydrospiro[cyclopenta[b]pyridine-6,4′-piperidin]-5-amine] | –
12 | < 1000 | – | < 500 | N[C@@H]1c2ccccc2CC12CCN(c1nc3ncc(Sc4ccnc5nccnc45)nc3[nH]1)CC2 [Example 194, (S)-1′-(6-(pyrido[2,3-b]pyrazin-8-ylthio)-1H-imidazo[4,5-b]pyrazin-2-yl)-1,3-dihydrospiro[indene-2,4′-piperidin]-1-amine] | –
13 | 1000 to 5000 | < 1000 | < 500 | N[C@@H]1c2cccc(F)c2CC12CCN(c1nc3nc(Sc4ccncc4Cl)cnc3[nH]1)CC2 [Example 207, (S)-1′-(5-((3-chloropyridin-4-yl)thio)-1H-imidazo[4,5-b]pyrazin-2-yl)-4-fluoro-1,3-dihydrospiro[indene-2,4′-piperidin]-1-amine] | –
14 | < 1000 | – | < 500 | COc1c(Sc2cnc3nc(N4CCC5(CC4)Cc4ccc(F)cc4[C@H]5N)[nH]c3n2)ccnc1N [Example 190, (S)-1′-(6-((2-amino-3-methoxypyridin-4-yl)thio)-1H-imidazo[4,5-b]pyrazin-2-yl)-6-fluoro-1,3-dihydrospiro[indene-2,4′-piperidin]-1-amine] | –
15 | < 1000 | – | < 500 | N[C@@H]1c2ccccc2CC12CCN(c1nc3ncc(Sc4cccc5c4OCCO5)nc3[nH]1)CC2 [Example 167, (S)-1′-(6-((2,3-dihydrobenzo[b][1,4]dioxin-5-yl)thio)-1H-imidazo[4,5-b]pyrazin-2-yl)-1,3-dihydrospiro[indene-2,4′-piperidin]-1-amine] | –
16 | < 1000 | – | < 500 | Nc1nccc(Sc2cnc3[nH]c(N4CCC5(CC4)Cc4cc(CO)ccc4[C@H]5N)nc3n2)c1Cl [Example 252, (S)-(1-amino-1′-(5-((2-amino-3-chloropyridin-4-yl)thio)-1H-imidazo[4,5-b]pyrazin-2-yl)-1,3-dihydrospiro[indene-2,4′-piperidin]-5-yl)methanol] | –
17 | – | – | – | FC(F)(F)c1ncccc1Sc1cnc2nc(NC3CCNC4(CCC4)C3)[nH]c2n1 (centres unmarked) [Example 126, N-(5-azaspiro[3.5]nonan-8-yl)-6-((2-(trifluoromethyl)pyridin-3-yl)thio)-1H-imidazo[4,5-b]pyrazin-2-amine] | > 5000
18 | – | – | – | FC(F)(F)c1ncccc1Sc1cnc2[nH]c(N3CCC4CCC(C3)N4)nc2n1 (centres unmarked) [Example 125, 2-(3,9-diazabicyclo[4.2.1]nonan-3-yl)-5-((2-(trifluoromethyl)pyridin-3-yl)thio)-1H-imidazo[4,5-b]pyrazine] | > 5000
19 | – | – | – | FC(F)(F)c1ncccc1Sc1cnc2[nH]c(NCC3CNC(c4ccccc4)C3)nc2n1 (centres unmarked) [Example 128, N-((5-phenylpyrrolidin-3-yl)methyl)-5-((2-(trifluoromethyl)pyridin-3-yl)thio)-1H-imidazo[4,5-b]pyrazin-2-amine] | > 5000
20 | < 1000 | – | – | Nc1nccc(Sc2cnc3[nH]c(N4CCC5(CC4)Oc4ccccc4[C@H]5N)nc3n2)c1Cl [Example 35, (R)-1′-(5-((2-amino-3-chloropyridin-4-yl)thio)-1H-imidazo[4,5-b]pyrazin-2-yl)-3H-spiro[benzofuran-2,4′-piperidin]-3-amine] | –
21 | – | – | < 500 | Cc1c(Cl)cccc1Sc1cnc2[nH]c(N3CCC(C)(N)CC3)nc2n1 [Example 114, 1-(5-((3-chloro-2-methylphenyl)thio)-1H-imidazo[4,5-b]pyrazin-2-yl)-4-methylpiperidin-4-amine] | –
22 | – | – | 500 to 3000 | CC1(N)CCN(c2nc3ncc(-c4cccc(Cl)c4Cl)nc3[nH]2)CC1 [Example 131, 1-[5-(2,3-Dichlorophenyl)-1H-imidazo[4,5-b]pyrazin-2-yl]-4-methylpiperidin-4-amine] | –

Row | SMILES | IC50 [1, 3] [nM] | IC50 [1, 4] [nM] | IC50 [2] [nM] | IC50 ([1]; Homo sapiens, KYSE-520, 2 h) [nM]
23 | N[C@@H]1c2ccccc2CC12CCN(c1nc3nc(Sc4ccnc(O)c4Cl)cnc3[nH]1)CC2 [Example 152, (S)-4-((2-(1-amino-1,3-dihydrospiro[indene-2,4′-piperidin]-1′-yl)-1H-imidazo[4,5-b]pyrazin-5-yl)thio)-3-chloropyridin-2-ol] | – | – | < 500 | > 5000
